From ChEMBL document CHEMBL3639218, “Bicyclic heterocycle compounds and their uses in therapy” (2015)

Experiments:
[1] = molecular target: Baculoviral IAP repeat-containing protein 2 (Homo sapiens, UniProt Q13490); test: In vitro Competitive Displacement Binding Assays : Modified SMAC peptides and compounds were tested for their ability to displace the fluorescent tracer from either XIAP, clAP-1 or clAP-2. BIR3 domains of clAP-1 , clAP-2 and XIAP were incubated with test compounds or SMAC based peptides and their respective peptide probes (Peptide Protein Research) in assay buffer (50mM Hepes pH 7.5, […] Tween-
[2] = molecular target: E3 ubiquitin-protein ligase XIAP (Homo sapiens, UniProt P98170); test: as above

| IC50 [1] [nM] | IC50 [2] [nM] | Compound |
| --- | --- | --- |
| 40000 |  | C[C@@H]1CN(CC(=O)N2CCc3ccc(Br)cc32)CCN1 |
|  | 2400 | CC(C)[C@H]1CN[C@H](C)CN1CC(=O)N1CCc2ccc(Br)cc21 |
| 16 |  | COC[C@H]1CN[C@H](C)CN1CC(=O)N1CC(C)(C)c2cnc(CCC(C)C)cc21 |
